Literature values in patent US20240139197A1, “INHIBITION OF KDM5A FOR PROMOTING ANTIGEN PRESENTATION, INCREASING CD8+ T CELL INFILTRATION AND BOOSTING ANTI-TUMOR IMMUNE RESPONSE” (The Wistar Institute of Anatomy and Biology, priority 2022, published 2024).
Like-named read-outs stand apart in the source and are kept apart here.

What was measured:
[1] = target: T1, KDM5A (Homo sapiens (Human), UniProt P29375); details: KDM5A inhibitors disclosed in Miyake et al; cited from earlier work
[2] = target: T1, KDM5A; details: biochemical assay with pre-incubation; cited from earlier work
[3] = target: KDM5B (Homo sapiens (Human), UniProt Q9UGL1); details: biochemical assay with pre-incubation; cited from earlier work
Sequence of KDM5B (Q9UGL1 whole entry, species assumed): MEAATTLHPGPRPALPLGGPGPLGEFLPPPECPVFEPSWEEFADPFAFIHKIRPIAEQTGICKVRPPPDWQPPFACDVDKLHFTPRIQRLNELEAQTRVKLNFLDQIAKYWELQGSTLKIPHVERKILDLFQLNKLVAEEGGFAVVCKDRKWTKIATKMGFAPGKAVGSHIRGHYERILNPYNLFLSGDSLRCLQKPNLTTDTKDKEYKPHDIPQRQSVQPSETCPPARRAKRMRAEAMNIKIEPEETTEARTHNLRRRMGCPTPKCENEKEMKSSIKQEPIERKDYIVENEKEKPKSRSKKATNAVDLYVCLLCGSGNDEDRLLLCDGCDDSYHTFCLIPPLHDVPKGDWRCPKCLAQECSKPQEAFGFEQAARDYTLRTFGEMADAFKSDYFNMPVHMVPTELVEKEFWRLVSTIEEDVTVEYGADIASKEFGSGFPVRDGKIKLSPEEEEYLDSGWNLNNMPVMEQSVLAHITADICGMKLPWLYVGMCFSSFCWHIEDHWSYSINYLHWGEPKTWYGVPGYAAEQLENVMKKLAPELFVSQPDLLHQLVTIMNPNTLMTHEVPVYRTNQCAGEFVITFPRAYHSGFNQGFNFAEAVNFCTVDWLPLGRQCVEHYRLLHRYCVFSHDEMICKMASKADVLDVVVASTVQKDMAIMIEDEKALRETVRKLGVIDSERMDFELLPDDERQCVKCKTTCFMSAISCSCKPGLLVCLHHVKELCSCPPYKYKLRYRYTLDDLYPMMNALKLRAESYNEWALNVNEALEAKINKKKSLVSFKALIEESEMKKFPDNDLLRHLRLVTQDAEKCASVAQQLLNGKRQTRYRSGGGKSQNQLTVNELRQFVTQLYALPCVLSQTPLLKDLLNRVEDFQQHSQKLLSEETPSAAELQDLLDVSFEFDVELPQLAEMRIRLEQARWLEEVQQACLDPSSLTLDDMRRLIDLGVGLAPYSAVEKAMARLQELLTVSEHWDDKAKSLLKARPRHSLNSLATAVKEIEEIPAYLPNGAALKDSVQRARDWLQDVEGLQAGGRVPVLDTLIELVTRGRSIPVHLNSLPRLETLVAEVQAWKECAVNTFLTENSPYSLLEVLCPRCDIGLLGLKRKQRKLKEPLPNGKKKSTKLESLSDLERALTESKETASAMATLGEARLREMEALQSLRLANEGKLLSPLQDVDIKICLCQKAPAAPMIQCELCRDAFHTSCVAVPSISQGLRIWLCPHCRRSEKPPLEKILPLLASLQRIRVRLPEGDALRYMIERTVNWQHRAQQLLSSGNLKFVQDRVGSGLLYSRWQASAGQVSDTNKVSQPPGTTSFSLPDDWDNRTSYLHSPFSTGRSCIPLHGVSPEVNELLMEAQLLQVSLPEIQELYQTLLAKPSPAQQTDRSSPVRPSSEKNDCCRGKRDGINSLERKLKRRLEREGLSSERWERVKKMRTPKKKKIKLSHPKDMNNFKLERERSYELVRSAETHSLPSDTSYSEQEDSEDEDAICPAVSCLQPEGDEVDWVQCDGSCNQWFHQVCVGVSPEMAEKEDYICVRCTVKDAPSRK

[4] = target: KDM4C (Homo sapiens (Human), UniProt Q9H3R0); details: biochemical assay with pre-incubation; cited from earlier work
Sequence of KDM4C (Q9H3R0 whole entry, species assumed): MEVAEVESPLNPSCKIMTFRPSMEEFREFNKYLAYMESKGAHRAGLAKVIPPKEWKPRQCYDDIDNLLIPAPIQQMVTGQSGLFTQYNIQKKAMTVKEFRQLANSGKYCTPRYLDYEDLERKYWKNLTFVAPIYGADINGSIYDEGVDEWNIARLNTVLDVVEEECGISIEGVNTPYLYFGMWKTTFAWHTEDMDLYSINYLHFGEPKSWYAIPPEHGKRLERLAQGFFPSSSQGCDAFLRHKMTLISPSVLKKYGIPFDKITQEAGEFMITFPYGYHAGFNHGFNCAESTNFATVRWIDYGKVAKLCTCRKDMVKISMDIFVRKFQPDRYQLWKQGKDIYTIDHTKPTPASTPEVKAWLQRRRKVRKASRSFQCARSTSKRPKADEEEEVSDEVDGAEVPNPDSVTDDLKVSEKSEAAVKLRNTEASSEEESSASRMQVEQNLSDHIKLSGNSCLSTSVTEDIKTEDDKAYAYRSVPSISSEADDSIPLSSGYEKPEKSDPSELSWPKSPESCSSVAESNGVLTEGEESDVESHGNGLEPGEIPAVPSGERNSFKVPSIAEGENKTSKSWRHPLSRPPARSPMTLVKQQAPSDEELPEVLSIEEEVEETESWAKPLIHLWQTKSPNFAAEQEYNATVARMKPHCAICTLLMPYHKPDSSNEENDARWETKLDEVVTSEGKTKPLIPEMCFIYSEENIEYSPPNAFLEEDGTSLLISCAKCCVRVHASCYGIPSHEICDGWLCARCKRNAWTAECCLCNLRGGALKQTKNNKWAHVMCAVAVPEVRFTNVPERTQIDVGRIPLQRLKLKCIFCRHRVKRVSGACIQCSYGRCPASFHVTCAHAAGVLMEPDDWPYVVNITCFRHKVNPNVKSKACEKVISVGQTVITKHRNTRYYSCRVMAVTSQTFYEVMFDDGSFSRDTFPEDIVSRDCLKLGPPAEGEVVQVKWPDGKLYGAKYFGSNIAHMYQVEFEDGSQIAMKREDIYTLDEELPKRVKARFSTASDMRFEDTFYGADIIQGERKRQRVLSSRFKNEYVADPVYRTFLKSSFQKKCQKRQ

T1 sequence (P29375 whole entry): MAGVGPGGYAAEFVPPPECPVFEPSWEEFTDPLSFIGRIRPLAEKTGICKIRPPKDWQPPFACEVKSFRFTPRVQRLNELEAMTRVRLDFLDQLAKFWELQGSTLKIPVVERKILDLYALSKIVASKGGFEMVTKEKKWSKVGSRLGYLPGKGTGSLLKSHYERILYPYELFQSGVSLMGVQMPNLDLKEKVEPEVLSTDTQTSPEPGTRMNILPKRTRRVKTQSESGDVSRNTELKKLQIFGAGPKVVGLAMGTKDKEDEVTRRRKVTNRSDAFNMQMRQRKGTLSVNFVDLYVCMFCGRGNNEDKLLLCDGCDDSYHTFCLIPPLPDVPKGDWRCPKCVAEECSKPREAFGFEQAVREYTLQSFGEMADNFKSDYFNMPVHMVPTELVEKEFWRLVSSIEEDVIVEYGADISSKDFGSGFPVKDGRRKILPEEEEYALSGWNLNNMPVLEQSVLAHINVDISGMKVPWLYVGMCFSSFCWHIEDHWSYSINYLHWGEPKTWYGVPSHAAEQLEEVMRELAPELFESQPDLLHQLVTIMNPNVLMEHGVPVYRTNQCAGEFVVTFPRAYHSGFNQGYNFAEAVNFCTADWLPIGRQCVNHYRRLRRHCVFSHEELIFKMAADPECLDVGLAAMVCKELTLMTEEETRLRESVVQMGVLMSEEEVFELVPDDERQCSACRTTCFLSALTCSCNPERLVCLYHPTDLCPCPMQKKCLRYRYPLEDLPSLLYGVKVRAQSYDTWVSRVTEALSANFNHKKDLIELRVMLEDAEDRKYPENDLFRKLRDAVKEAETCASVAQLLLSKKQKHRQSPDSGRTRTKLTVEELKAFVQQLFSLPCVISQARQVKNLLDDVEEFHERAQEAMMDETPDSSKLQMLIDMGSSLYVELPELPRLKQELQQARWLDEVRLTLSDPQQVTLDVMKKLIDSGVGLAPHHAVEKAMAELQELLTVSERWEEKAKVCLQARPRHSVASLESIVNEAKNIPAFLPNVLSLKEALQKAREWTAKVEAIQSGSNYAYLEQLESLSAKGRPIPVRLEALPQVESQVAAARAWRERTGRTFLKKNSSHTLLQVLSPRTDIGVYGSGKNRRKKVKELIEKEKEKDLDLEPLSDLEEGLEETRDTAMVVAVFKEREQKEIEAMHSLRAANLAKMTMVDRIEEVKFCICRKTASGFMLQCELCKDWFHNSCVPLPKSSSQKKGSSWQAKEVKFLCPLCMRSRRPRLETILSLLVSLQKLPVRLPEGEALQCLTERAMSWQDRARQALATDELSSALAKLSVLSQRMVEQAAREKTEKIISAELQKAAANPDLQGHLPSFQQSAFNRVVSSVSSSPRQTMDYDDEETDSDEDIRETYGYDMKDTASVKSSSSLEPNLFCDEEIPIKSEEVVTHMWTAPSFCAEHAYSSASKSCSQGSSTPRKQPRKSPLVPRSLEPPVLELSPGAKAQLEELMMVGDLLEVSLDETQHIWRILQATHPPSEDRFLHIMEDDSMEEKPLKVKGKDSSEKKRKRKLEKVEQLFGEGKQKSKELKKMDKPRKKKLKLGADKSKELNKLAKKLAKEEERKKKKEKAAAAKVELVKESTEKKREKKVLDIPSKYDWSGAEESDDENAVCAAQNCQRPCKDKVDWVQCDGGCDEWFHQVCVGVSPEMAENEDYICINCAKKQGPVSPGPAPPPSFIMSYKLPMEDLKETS

Row | Compound | IC50 [1] [nM] | IC50 [2] [nM] | IC50 [3] [nM] | IC50 [4] [nM]
1 | CCCCCCN(C)Cc1cccc(-c2[nH]c3c(C#N)cnn3c(=O)c2C(C)C)c1 [Compound 11] | 65.3 ± 8.6 |  |  | 
2 | CCCCCCN(C)Cc1cc(-c2[nH]c3c(C#N)cnn3c(=O)c2C(C)C)cs1 [Compound 12] | 179 ± 12 |  |  | 
3 | CCCCCCN(C)CCc1ccc(-c2[nH]c3c(C#N)cnn3c(=O)c2C(C)C)cc1 [Compound 13] | 4.37 ± 0.19 |  |  | 
4 | O=C(O)c1ccnc(-n2nccc2OCc2ccc(Cl)cc2F)c1 [Compound 32] |  | 18 | 4 | 
5 | Cc1cc(Cl)ccc1COc1ccnn1-c1cc(C(=O)O)ccn1 [Compound 33] |  | 13 | 2 | 41
6 | COc1cc(Cl)ccc1COc1ccnn1-c1cc(C(=O)O)ccn1 [Compound 34] |  | 12 |  | 38
7 | CCOc1cc(Cl)ccc1COc1ccnn1-c1cc(C(=O)O)ccn1 [Compound 35] |  |  | 4 | 78
8 | O=C(O)c1ccnc(-n2nccc2OCc2ccc(Cl)cc2OCC2CC2)c1 [Compound 36] |  |  |  | 280
